In US20160025704A1, “METHODS FOR IDENTIFYING NEUROPROTECTIVE PKC ACTIVATORS” (priority 2013, published 2016):

Tests used:
Primary human neurons = test: Synaptogenicity in primary human neurons; format: cell-based; details: 100 nM
Procedure: Protocol: Primary human neurons were treated with either DCPLA-methyl ester (100 nM) or bryostatin-1 (0.27 nM).

HCN-2 cells = test: Synaptogenesis in HCN-2 cells; format: cell-based, human; details: 10 days
Procedure: FIG. 9 illustrates that activation of PKC-ε induces synaptogenesis in HCN-2 cells. The HCN-2 cell line was derived from cortical tissue removed from a patient undergoing hemispherectomy for intractable seizures associated with Rasmussen's encephalitis. The cells were treated with either DCPLA-methyl ester or bryostatin-1 for 10 days. […] Thus, PKC-ε activation can induce synaptogenesis in both embryonic and adult neuronal cells.

[1] = system: BDNF, NGF, NT-3, and GAP-43 mRNA; test: NTF mRNA expression in primary hippocampal neurons treated with Aβ (real time PCR); format: cell-based, rat; details: 100 nM; 1 μM Aβ; co-treated 24 hours or treated 12 hours after Aβ
Procedure: Protocol: Primary hippocampal neurons were treated with control buffer (Untreated), Aβ (1 μM, oligomeric form), or 0.5 nM bryostatin for 24 hours. Some cells were co-treated with Aβ plus 0.5 nM bryostatin (Bryo+Aβ) for 24 hours, or pre-treated with Aβ for 12 hours, washed out, and then treated with bryostatin for additional 12 hours (Aβ+Bryo). Cells were then lysed and total RNA was isolated. Relative expression change of BDNF, NGF, NT-3, and GAP-43 mRNA was quantitatively measured from real time PCR using specific primers against rat BDNF, NGF, NT-3, and GAP-43 mRNA (FIG. 14). A representative gel image is also shown below in FIG. 14 (Mean+SEM, *P<0.05, Aβ compared with untreated; #P<0.05, Bryo+Aβ or Aβ+Bryo compared with Aβ only).
Test A—DCPLA (500 nM): Primary hippocampal neurons were treated with control buffer (Untreated), Aβ (1 μM, oligomer), or 500 nM DCPLA for 24 hours. Some cells were pre-treated with Aβ for 12 hr and then treated with 500 nM DCPLA for 12 hours (Aβ+DCP-LA), or co-treated with Aβ plus 500 nM DCP-LA (DCP-LA+Aβ) for 24 hours. Total RNA was isolated and relative expression change of BDNF, NGF, NT-3, and GAP-43 mRNA was quantitatively measured from real time RT-PCR using specific primers against rat BDNF, NGF, NT-3, and GAP-43 mRNA (FIG. 15). A representative gel image is also shown below in FIG. 15 (Mean+SEM of three independent experiments, *P<0.05, Aβ compared with untreated; #P<0.05, Aβ+Bryo or Bryo+Aβ compared with Aβ only).
Test B—DCPLA-methyl ester (100 nM): Primary hippocampal neurons were treated with control buffer (Untreated), 1 μM Aβ, or 100 nM DCP-LA ME (the methyl ester form of DCP-LA) for 24 hours. Some cells were pre-treated with Aβ for 12 hr and then treated with 100 nM DCP-LA ME for 12 hours (Aβ+DCP-LA ME), or co-treated with Aβ plus […] (DCP-LA ME+Aβ) for 24 hours. Total RNA was isolated and relative expression change of BDNF, NGF, NT-3, and GAP-43 mRNA was quantitatively measured from real time RT-PCR using specific primers against rat BDNF, NGF, NT-3, and GAP-43 mRNA (FIG. 16). […]

PKC-ε = biological target: T1, PKC-ε (Homo sapiens, UniProt Q02156); test: Activation of purified PKC isozymes; format: biochemical; details: purified PKC isozymes (9 ng), preincubated 5 minutes at room temperature
T1 sequence (Q02156 1-737): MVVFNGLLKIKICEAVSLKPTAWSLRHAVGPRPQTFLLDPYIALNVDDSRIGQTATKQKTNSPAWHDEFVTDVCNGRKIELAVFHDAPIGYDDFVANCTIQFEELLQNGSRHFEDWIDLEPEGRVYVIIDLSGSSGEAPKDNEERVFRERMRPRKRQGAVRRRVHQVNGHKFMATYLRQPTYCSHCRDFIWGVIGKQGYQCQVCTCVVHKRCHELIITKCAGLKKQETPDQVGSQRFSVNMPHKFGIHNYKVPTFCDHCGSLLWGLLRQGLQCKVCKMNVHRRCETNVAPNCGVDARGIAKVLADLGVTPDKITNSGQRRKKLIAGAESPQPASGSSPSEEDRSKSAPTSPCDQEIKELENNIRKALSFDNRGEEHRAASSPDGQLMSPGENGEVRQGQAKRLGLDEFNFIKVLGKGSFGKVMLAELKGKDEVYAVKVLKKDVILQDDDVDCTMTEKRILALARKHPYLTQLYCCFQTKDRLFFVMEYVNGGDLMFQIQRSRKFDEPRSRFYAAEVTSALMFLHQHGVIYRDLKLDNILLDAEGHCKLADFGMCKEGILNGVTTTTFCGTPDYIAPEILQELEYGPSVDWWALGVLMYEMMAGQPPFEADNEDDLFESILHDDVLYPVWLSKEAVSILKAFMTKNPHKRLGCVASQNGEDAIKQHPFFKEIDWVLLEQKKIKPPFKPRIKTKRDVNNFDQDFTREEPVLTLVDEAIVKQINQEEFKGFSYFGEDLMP
Procedure: Protocol: Purified PKC-α, βII, γ, δ, or ε (9 ng) was preincubated for 5 minutes at room temperature with the following PKC activators: (A) DHA-CP6, (B) EPA-CP5, (C) AA-CP4, (D) DCP-LA, (E) “other cyclopropaneated and epoxidized fatty acids, alcohols, and methyl esters.” followed by measurement of PKC activity as described under Experimental Procedures. Results are shown below in FIG. 6.

Human primary neurons = test: ASPD-induced apoptosis in human primary neurons (Annexin-V Fluorescein); format: cell-based; details: 100 nM with 100 nM ASPD, 24 hours
Procedure: Protocol: Human primary neurons were grown on chambered slides and treated with vehicle (Control), 100 nM ASPD, ASPD+DCPLA-ME (100 nM), ASPD+bryostatin 1 (0.27 nM) and ASPD+DCPLA-ME (100 nM) or ASPD+bryostatin 1 (0.27 nM) in presence of PKC-ε inhibitor. Following 24 hours of incubation, cells were stained using Annexin-V Fluorescein to detect apoptotic cells and results are shown in FIG. 10 below. […] Data are mean±SEM of three independent experiments. (*p<0.05;** p<0.005 and *** p<0.0005).

[2] = system: neurons in the CA1 hippocampal area; test: Apoptotic cell death (TUNEL) in hippocampal CA1 area after ischemic (2-VO)/hypoxic event; format: in vivo; details: FIG. 11 legend; dose not given
Procedure: Protocol: Bryostatin-1 (15 μg/m^2) was administered through a tail vein (2 doses/week, for 10 doses), starting 24 hours after the end of the ischemic (2-VO)/hypoxic event. Staining for apoptotic cell death in the hippocampal CA1 area was performed 9 day after the last bryostatin-1 dose. […] (C) Quantification of TUNEL staining in stratum radiatum (n=3 animals; n=30 confocal images). Con=control; Bry=bryostatin-1; Isch=cerebral ischemia; ***, P<0.001.

CCCCCC1CC1CC1CC1CCCCCCCC(=O)OC (stereo not shown) [DCPLA-methyl ester]
co-localized staining of PSD-95 and synaptophysin in puncta (number of synapses) (Primary human neurons; 30 days): an increase in co-localized staining of PSD-95 and synaptophysin in puncta | survival, neuritic branching and connections (Primary human neurons; 40 days): improved survival with increased neuritic branching and connections | differentiation, neuronal branching and punctate colocalization of PSD-95 and synaptophysin (HCN-2 cells): significant differentiation with neuronal branching and increased punctate colocalization of PSD-95 and synaptophysin | NTF mRNA expression decreased by Aβ [1]: recovers NTF mRNA expression decreased by Aβ | PKC-ε specificity versus PKC-α and PKC-δ (PKC-ε): PKC-ε specificity ±15% PKC-α and PKC-δ | protection against ASPD-induced apoptosis (Human primary neurons): protected against ASPD-induced apoptosis | apoptotic cell death in neurons in the CA1 hippocampal area [2]: prevents apoptotic cell death
